From patent publication US20140357655A1, “SPIROINDOLINE DERIVATIVES AS GONADOTROPIN- RELEASING HORMONE RECEPTOR ANTAGONISTS” (Bayer Intellectual Property GmbH, priority 2012, published 2014)

Biological target: T1, human GnRH receptor (Homo sapiens, UniProt P30968)
T1 sequence (P30968 1-328): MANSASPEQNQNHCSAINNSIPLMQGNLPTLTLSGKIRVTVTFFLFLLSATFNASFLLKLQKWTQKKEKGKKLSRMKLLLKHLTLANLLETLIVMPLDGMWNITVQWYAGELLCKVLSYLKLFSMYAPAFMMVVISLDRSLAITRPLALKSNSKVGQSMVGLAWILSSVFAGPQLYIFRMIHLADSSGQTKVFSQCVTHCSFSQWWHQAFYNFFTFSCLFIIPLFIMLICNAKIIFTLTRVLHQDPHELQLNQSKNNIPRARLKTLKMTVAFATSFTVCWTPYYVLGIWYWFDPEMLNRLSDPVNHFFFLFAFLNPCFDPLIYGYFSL
Assay: IP-One HTRF assay with buserelin (at EC80) stimulation
Type: cell-based
Details: CHO cells stably expressing human GnRH receptor, read-out: Potency in IP-One HTRF assay, given as IC50
Outline: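 Ten-point duplicate titrations (20 μM to 1 nM) were fitted by 4-parameter model to normalized 665/620 nm HTRF ratios, 0% = no compound, 100% = no agonist. Assay measured IP1 accumulation in human GnRH-R CHO cells stimulated 1 h at 37° C with EC80 buserelin, then lysed 1 h at 22° C.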

SMILES	IC50 [µM]
CC1N(S(=O)(=O)c2ccc(F)cc2)c2ccc(C(=O)NCc3ncccc3Cl)cc2C12CCS(=O)(=O)CC2 (stereo not drawn) [Example 26, N-[(3-chloropyridin-2-yl)methyl]-1-[(4-fluorophenyl)sulfonyl]-2-methyl-1,2,2′,3′,5′,6′-hexahydrospiro[indole-3,4′-thiopyran]-5-carboxamide 1′,1′-dioxide]	0.646
CC1N(S(=O)(=O)c2ccc(F)cc2)c2ccc(C(=O)NC(C)(C)c3ccc(F)cc3Cl)cc2C12CCS(=O)(=O)CC2 (stereo not drawn) [Example 27, N-(2-chloro-4-fluoro-α,α-dimethylbenzyl)-1-[(4-fluorophenyl)sulfonyl]-2-methyl-1,2,2′,3′,5′,6′-hexahydrospiro[indole-3,4′-thiopyran]-5-carboxamide 1′,1′-dioxide]	9.02
CC1N(S(=O)(=O)c2ccc(F)cc2)c2ccc(C(=O)NCc3ncc(F)cc3Cl)cc2C12CCS(=O)(=O)CC2 (stereo not drawn) [Example 28, N-[(3-chloro-5-fluoropyridin-2-yl)methyl]-1-[(4-fluorophenyl)sulfonyl]-2-methyl-1,2,2′,3′,5′,6′-hexahydrospiro[indole-3,4′-thiopyran]-5-carboxamide 1′,1′-dioxide]	0.405
Cc1ccc(NC(=O)c2ccc3c(c2)C2(CCS(=O)(=O)CC2)C(C2CC2)N3S(=O)(=O)c2ccc(F)cc2)nc1 (stereo not drawn) [Example 29, 2-cyclopropyl-1-[(4-fluorophenyl)sulfonyl]-N-(5-methylpyridin-2-yl)-1,2,2′,3′,5′,6′-hexahydrospiro[indole-3,4′-thiopyran]-5-carboxamide 1′,1′-dioxide]	> 20
NS(=O)(=O)c1cccc(NC(=O)c2ccc3c(c2)C2(CCS(=O)(=O)CC2)C(C2CC2)N3S(=O)(=O)c2ccc(F)cc2)c1 (stereo not drawn) [Example 30, 2-cyclopropyl-1-[(4-fluorophenyl)sulfonyl]-N-(3-sulfamoylphenyl)-1,2,2′,3′,5′,6′-hexahydrospiro[indole-3,4′-thiopyran]-5-carboxamide 1′,1′-dioxide]	0.245
Cc1cccnc1CNC(=O)c1ccc2c(c1)C1(CCS(=O)(=O)CC1)C(C1CC1)N2S(=O)(=O)c1ccc(F)cc1 (stereo not drawn) [Example 31, 2-cyclopropyl-1-[(4-fluorophenyl)sulfonyl]-N-[(3-methylpyridin-2-yl)methyl]-1,2,2′,3′,5′,6′-hexahydrospiro[indole-3,4′-thiopyran]-5-carboxamide 1′,1′-dioxide]	0.503
O=C(NCc1ccccc1C(F)(F)F)c1ccc2c(c1)C1(CCS(=O)(=O)CC1)C(C1CC1)N2S(=O)(=O)c1ccc(F)cc1 (stereo not drawn) [Example 32, 2-cyclopropyl-1-[(4-fluorophenyl)sulfonyl]-N-[2-(trifluoromethyl)benzyl]-1,2,2′,3′,5′,6′-hexahydrospiro[indole-3,4′-thiopyran]-5-carboxamide 1′,1′-dioxide]	0.058
O=C(NC1CCOc2ccccc21)c1ccc2c(c1)C1(CCS(=O)(=O)CC1)C(C1CC1)N2S(=O)(=O)c1ccc(F)cc1 (stereo not drawn) [Example 33, 2-cyclopropyl-N-(3,4-dihydro-2H-chromen-4-yl)-1-[(4-fluorophenyl)sulfonyl]-1,2,2′,3′,5′,6′-hexahydrospiro[indole-3,4′-thiopyran]-5-carboxamide 1′,1′-dioxide]	0.958
COC(=O)c1cccc(NC(=O)c2ccc3c(c2)C2(CCS(=O)(=O)CC2)C(C2CC2)N3S(=O)(=O)c2ccc(F)cc2)c1 (stereo not drawn) [Example 34, methyl 3-[({2-cyclopropyl-1-[(4-fluorophenyl)sulfonyl]-1′,1′-dioxido-1,2,2′,3′,5′,6′-hexahydrospiro[indole-3,4′-thiopyran]-5-yl}carbonyl)amino]benzoate]	0.066
O=C(NCC1CC1)c1ccc2c(c1)C1(CCS(=O)(=O)CC1)C(C1CC1)N2S(=O)(=O)c1ccc(F)cc1 (stereo not drawn) [Example 35, 2-cyclopropyl-N-(cyclopropylmethyl)-1-[(4-fluorophenyl)sulfonyl]-1,2,2′,3′,5′,6′-hexahydrospiro[indole-3,4′-thiopyran]-5-carboxamide 1′,1′-dioxide]	0.627
O=C(NCC1CCCCC1)c1ccc2c(c1)C1(CCS(=O)(=O)CC1)C(C1CC1)N2S(=O)(=O)c1ccc(F)cc1 (stereo not drawn) [Example 36, N-(cyclohexylmethyl)-2-cyclopropyl-1-[(4-fluorophenyl)sulfonyl]-1,2,2′,3′,5′,6′-hexahydrospiro[indole-3,4′-thiopyran]-5-carboxamide 1′,1′-dioxide]	0.169
CN(C)S(=O)(=O)c1cccc(NC(=O)c2ccc3c(c2)C2(CCS(=O)(=O)CC2)C(C2CC2)N3S(=O)(=O)c2ccc(F)cc2)c1 (stereo not drawn) [Example 37, 2-cyclopropyl-N-[3-(N,N-dimethylsulfamoyl)phenyl]-1-[(4-fluorophenyl)sulfonyl]-1,2,2′,3′,5′,6′-hexahydrospiro[indole-3,4′-thiopyran]-5-carboxamide 1′,1′-dioxide]	0.078
O=C(NCC1CCCC1)c1ccc2c(c1)C1(CCS(=O)(=O)CC1)C(C1CC1)N2S(=O)(=O)c1ccc(F)cc1 (stereo not drawn) [Example 38, N-(cyclopentylmethyl)-2-cyclopropyl-1-[(4-fluorophenyl)sulfonyl]-1,2,2′,3′,5′,6′-hexahydrospiro[indole-3,4′-thiopyran]-5-carboxamide 1′,1′-dioxide]	0.136
COc1cccc(S(=O)(=O)N2c3ccc(C(=O)NCc4ncccc4C(F)(F)F)cc3C3(CCS(=O)(=O)CC3)C2C2CC2)c1 (stereo not drawn) [Example 39, 2-cyclopropyl-1-[(3-methoxyphenyl)sulfonyl]-N-{[3-(trifluoromethyl)pyridin-2-yl]methyl}-1,2,2′,3′,5′,6′-hexahydrospiro[indole-3,4′-thiopyran]-5-carboxamide 1′,1′-dioxide]	0.053
COc1cccc(S(=O)(=O)N2c3ccc(C(=O)NCc4ccccc4C(F)(F)F)cc3C3(CCS(=O)(=O)CC3)C2C2CC2)c1 (stereo not drawn) [Example 40, 2-cyclopropyl-1-[(3-methoxyphenyl)sulfonyl]-N-[2-(trifluoromethyl)benzyl]-1,2,2′,3′,5′,6′-hexahydrospiro[indole-3,4′-thiopyran]-5-carboxamide 1′,1′-dioxide]	0.032
COc1cccc(S(=O)(=O)N2c3ccc(C(=O)NCc4ncccc4Cl)cc3C3(CCS(=O)(=O)CC3)C2C2CC2)c1 (stereo not drawn) [Example 41, N-[(3-chloropyridin-2-yl)methyl]-2-cyclopropyl-1-[(3-methoxyphenyl)sulfonyl]-1,2,2′,3′,5′,6′-hexahydrospiro[indole-3,4′-thiopyran]-5-carboxamide 1′,1′-dioxide]	0.234
COc1cccc(S(=O)(=O)N2c3ccc(C(=O)Nc4cccc(S(N)(=O)=O)c4)cc3C3(CCS(=O)(=O)CC3)C2C2CC2)c1 (stereo not drawn) [Example 42, 2-cyclopropyl-1-[(3-methoxyphenyl)sulfonyl]-N-(3-sulfamoylphenyl)-1,2,2′,3′,5′,6′-hexahydrospiro[indole-3,4′-thiopyran]-5-carboxamide 1′,1′-dioxide]	0.096
COc1cccc(S(=O)(=O)N2c3ccc(C(=O)Nc4cccc(S(=O)(=O)N(C)C)c4)cc3C3(CCS(=O)(=O)CC3)C2C2CC2)c1 (stereo not drawn) [Example 43, 2-cyclopropyl-N-[3-(N,N-dimethylsulfamoyl)phenyl]-1-[(3-methoxyphenyl)sulfonyl]-1,2,2′,3′,5′,6′-hexahydrospiro[indole-3,4′-thiopyran]-5-carboxamide 1′,1′-dioxide]	0.056
COc1cccc(S(=O)(=O)N2c3ccc(C(=O)NCc4ccccc4Cl)cc3C3(CCS(=O)(=O)CC3)C2C2CC2)c1 (stereo not drawn) [Example 44, N-(2-chlorobenzyl)-2-cyclopropyl-1-[(3-methoxyphenyl)sulfonyl]-1,2,2′,3′,5′,6′-hexahydrospiro[indole-3,4′-thiopyran]-5-carboxamide 1′,1′-dioxide]	0.031
COc1cccc(S(=O)(=O)N2c3ccc(C(=O)NCc4ncccc4C)cc3C3(CCS(=O)(=O)CC3)C2C2CC2)c1 (stereo not drawn) [Example 45, 2-cyclopropyl-1-[(3-methoxyphenyl)sulfonyl]-N-[(3-methylpyridin-2-yl)methyl]-1,2,2′,3′,5′,6′-hexahydrospiro[indole-3,4′-thiopyran]-5-carboxamide 1′,1′-dioxide]	0.299
COc1cccc(S(=O)(=O)N2c3ccc(C(=O)NCc4ccc(F)cc4Cl)cc3C3(CCS(=O)(=O)CC3)C2C2CC2)c1 (stereo not drawn) [Example 46, N-(2-chloro-4-fluorobenzyl)-2-cyclopropyl-1-[(3-methoxyphenyl)sulfonyl]-1,2,2′,3′,5′,6′-hexahydrospiro[indole-3,4′-thiopyran]-5-carboxamide 1′,1′-dioxide]	0.081
COc1cccc(S(=O)(=O)N2c3ccc(C(=O)NCc4ccccc4F)cc3C3(CCS(=O)(=O)CC3)C2C2CC2)c1 (stereo not drawn) [Example 47, 2-cyclopropyl-N-(2-fluorobenzyl)-1-[(3-methoxyphenyl)sulfonyl]-1,2,2′,3′,5′,6′-hexahydrospiro[indole-3,4′-thiopyran]-5-carboxamide 1′,1′-dioxide]	0.133
COC(=O)c1cccc(NC(=O)c2ccc3c(c2)C2(CCS(=O)(=O)CC2)C(C2CC2)N3S(=O)(=O)c2cccc(OC)c2)c1 (stereo not drawn) [Example 48, methyl 3-[({2-cyclopropyl-1-[(3-methoxyphenyl)sulfonyl]-1′,1′-dioxido-1,2,2′,3′,5′,6′-hexahydrospiro[indole-3,4′-thiopyran]-5-yl}carbonyl)amino]benzoate]	0.055
COc1cccc(S(=O)(=O)N2c3ccc(C(=O)Nc4cccc(C(=O)O)c4)cc3C3(CCS(=O)(=O)CC3)C2C2CC2)c1 (stereo not drawn) [Example 50, 3-[({2-cyclopropyl-1-[(3-methoxyphenyl)sulfonyl]-1′,1′-dioxido-1,2,2′,3′,5′,6′-hexahydrospiro[indole-3,4′-thiopyran]-5-yl}carbonyl)amino]benzoic acid]	0.054
